Laboratory results taken from paper PMC9085577, “Discovery of a Potent and Orally Active Dual GPBAR1/CysLT1R Modulator for the Treatment of Metabolic Fatty Liver Disease” (Frontiers in Pharmacology, 2022).

Test system: liver transcriptome
Assay: AmpliSeq liver transcriptome of HFD-F mice
Assay type: in vivo
Conditions: liver
Excerpt: C57BL/6J male mice were fed a high fat diet (HFD) containing 59 KJ% fat plus 1% cholesterol, w/o sugar (ssniff ® EF R/M acc. D12330 mod. 22,7 ME/kg) and fructose (HFD-F) in drinking water (42 g/L), or normal chow diet for 61 days. Food intake was estimated as the difference of weight between the offered and the remnant amount of food at 3-days intervals. The food was provided as pressed pellets and the residual spillage was not considered. After 7 days, HFD-F mice were randomized to receive HFD-F alone or in combination with compound 2 (30 mg/kg/day) by gavage until the end of the experiment. Doses of each agent were chosen according to previously published data. Mice were housed under controlled temperature (22°C) and photoperiods (12:12-h light/dark cycle), allowed unrestricted access to standard mouse chow and tap water. The experimental protocol was approved by the Animal Care and Use Committee of the University of Perugia and by the Italian Minister of Health and Istituto Superiore di Sanità (Italy) and was in agreement with the European guidelines for use of experimental animals (permission n. 583/2017-PR). The general health of the animals was monitored daily by the Veterinarian in the animal facility. At the day of sacrifice, fed mice were deeply anesthetized with a mixture of tiletamine hypochloride and zolazepam hypochloride/xylazine at a dose of 50/5 mg/kg and sacrificed before 12 a.m.
High-quality RNA was extracted from mice livers, using the Direct-zol™ RNA MiniPrep w/Zymo-Spin™ IIC Columns (Zymo Research, Irvine, CA) according to the manufacturer’s instructions. RNA quality and quantity were assessed with the Qubit® RNA HS Assay Kit and a Qubit 3.0 fluorometer (Invitrogen, Carlsbad, CA) followed by agarose gel electrophoresis. Libraries were generated using the Ion AmpliSeq™ Transcriptome Mouse Gene Expression Core Panel and Chef-Ready Kit (Comprehensive evaluation of AmpliSeq transcriptome, a whole transcriptome RNA sequencing methodology) (Thermo Fisher Scientific, Waltham, MA). Briefly, 10 ng of RNA was reverse transcribed with SuperScript™ Vilo™ cDNA Synthesis Kit (Thermo Fisher Scientific, Waltham, MA) before library preparation on the Ion Chef™ instrument (Thermo Fisher Scientific, Waltham, MA). The resulting cDNA was amplified to prepare barcoded libraries using the Ion Code™ PCR Plate, and the Ion AmpliSeq™ Transcriptome Mouse Gene Expression Core Panel (Thermo Fisher Scientific, Waltham, MA), Chef-Ready Kit, according to the manufacturer’s instructions. Barcoded libraries were combined to a final concentration of 100 p.m., and used to prepare Template-Positive Ion Sphere™ (Thermo Fisher Scientific, Waltham, MA) Particles to load on Ion 540™ Chips, using the Ion 540™ Kit-Chef (Thermo Fisher Scientific, Waltham, MA). Sequencing was performed on an Ion S5™ Sequencer with Torrent Suite™ Software v6 (Thermo Fisher Scientific, Waltham, MA). The analyses were performed with a range of fold <−2 and >+2 and a p value <0.05, using Transcriptome Analysis Console Software (version 4.0.1), certified for AmpliSeq analysis (Thermo-Fisher). The transcriptomic data have been deposited as dataset on Mendeley data repository (reference number linking to the repository: Fiorucci, Stefano; Biagioli, Michele; Marchianò, Silvia; Di Giorgio, Cristina (2021), “Discovery of potent dual GPBAR1/CysLT1R modulator for the treatment of metabolic fatty liver disease,” Mendeley Data, V1, doi: 10.17632/6dnrk9fc72.1).

## O=C(O)c1cccc(-c2ccc(OCc3ccc4ccccc4n3)cc2)c1 [Compound 2, 4'-(quinolin-2-ylmethoxy)-[1,1′-biphenyl]-3-carboxylic acid]
HFD + compound 2
  Gdf15 transcript Avg (log2): 3.91 log2
  Glipr1 transcript Avg (log2): 0.71 log2
  Glipr2 transcript Avg (log2): 1.26 log2
  Gm16063 transcript Avg (log2): 1.79 log2
  Gm30692 transcript Avg (log2): 0.5 log2
  Gm31555 transcript Avg (log2): 1.31 log2
  Gm31649 transcript Avg (log2): 2.75 log2
  Gm36796 transcript Avg (log2): 1.53 log2
  Gnat1 transcript Avg (log2): 3.01 log2
  Gngt1 transcript Avg (log2): 1.67 log2
  Gpnmb transcript Avg (log2): 0.3 log2
  Hnf4aos transcript Avg (log2): 3.75 log2
  Hnrnpa0 transcript Avg (log2): 2.3 log2
  Hspa5 transcript Avg (log2): 8.51 log2
  Igip transcript Avg (log2): 2.38 log2
  Il1b transcript Avg (log2): 1.8 log2
  Il1rn transcript Avg (log2): 1.01 log2
  Insig2 transcript Avg (log2): 5.39 log2
  Itgam transcript Avg (log2): 0.58 log2
  Kif20a transcript Avg (log2): 1.39 log2
  LOC108167447 transcript Avg (log2): 2.05 log2
  LOC108168323 transcript Avg (log2): 1.86 log2
  Lactb2 transcript Avg (log2): 3.85 log2
  Ly6d transcript Avg (log2): 1.72 log2
  Meg3 transcript Avg (log2): 4.04 log2
  Mettl9 transcript Avg (log2): 4.9 log2
  Mki67 transcript Avg (log2): 1.5 log2
  Mogat1 transcript Avg (log2): 2.35 log2
  Mthfd2 transcript Avg (log2): 1.97 log2
  Mvd transcript Avg (log2): 1.98 log2
  Nat8 transcript Avg (log2): 3.26 log2
  Neat1 transcript Avg (log2): 7.09 log2
  Npas2 transcript Avg (log2): 0.62 log2
  Nr4a1 transcript Avg (log2): 3.27 log2
  Nrep transcript Avg (log2): 6.14 log2
  Nuak2 transcript Avg (log2): 5.66 log2
  Pcbp1 transcript Avg (log2): 2.29 log2
  Pcp4l1 transcript Avg (log2): 3.46 log2
  Pdilt transcript Avg (log2): 4.25 log2
  Pdpn transcript Avg (log2): 0.96 log2
  Per3 transcript Avg (log2): 5.27 log2
  Plau transcript Avg (log2): 1.27 log2
  Plaur transcript Avg (log2): 1.66 log2
  Pld6 transcript Avg (log2): 4.01 log2
  Plekhg3 transcript Avg (log2): 6.24 log2
  Plxnc1 transcript Avg (log2): 2.12 log2
  Pnpla3 transcript Avg (log2): 4 log2
  Podn transcript Avg (log2): 3.56 log2
  Ppp1r3c transcript Avg (log2): 4.08 log2
  Prox1 transcript Avg (log2): 7.62 log2
  Psat1 transcript Avg (log2): 0.72 log2
  Ptgs2 transcript Avg (log2): 0.21 log2
  Raet1e transcript Avg (log2): 1.49 log2
  Raet1d transcript Avg (log2): 2.83 log2
  Ralbp1 transcript Avg (log2): 3.21 log2
  Rhob transcript Avg (log2): 3.81 log2
  Rrs1 transcript Avg (log2): 1.59 log2
  Saa4 transcript Avg (log2): 9.44 log2
  Sart3 transcript Avg (log2): 4.81 log2
  Sbk1 transcript Avg (log2): 4.33 log2
  Sec11c transcript Avg (log2): 3.53 log2
  Senp1 transcript Avg (log2): 3.87 log2
  Serpina7 transcript Avg (log2): 4.57 log2
  Serpine1 transcript Avg (log2): 2.19 log2
  Slc16a1 transcript Avg (log2): 2.98 log2
  Slc17a8 transcript Avg (log2): 2.05 log2
  Slc39a8 transcript Avg (log2): 3.52 log2
  Slc40a1 transcript Avg (log2): 3.94 log2
  Slc46a3 transcript Avg (log2): 4.69 log2
  Spon2 transcript Avg (log2): 1.99 log2
HFD-F + compound 2
  Sqle transcript Avg (log2): 1.02 log2
  Stfa3 transcript Avg (log2): 0 log2
  Taok3 transcript Avg (log2): 6.27 log2
  Tk1 transcript Avg (log2): 5.13 log2
  Tmx1 transcript Avg (log2): 5.44 log2
  Tnf transcript Avg (log2): 0.14 log2
  Tnfrsf23 transcript Avg (log2): 0.63 log2
  Tnnc1 transcript Avg (log2): 1.54 log2
  Tsku transcript Avg (log2): 4.72 log2
  Ubqln2 transcript Avg (log2): 2.22 log2
